{"source": "paper PMC11212260", "about": "“Next-generation neuropeptide Y receptor small-molecule agonists inhibit mosquito-biting behavior” (Parasites & Vectors, 2024)", "key": {"[1]": {"target": "T1, Ae. aegypti NPYLR7 (Aedes aegypti, UniProt U5N1H5)", "T1 sequence (U5N1H5 entry or part of it)": "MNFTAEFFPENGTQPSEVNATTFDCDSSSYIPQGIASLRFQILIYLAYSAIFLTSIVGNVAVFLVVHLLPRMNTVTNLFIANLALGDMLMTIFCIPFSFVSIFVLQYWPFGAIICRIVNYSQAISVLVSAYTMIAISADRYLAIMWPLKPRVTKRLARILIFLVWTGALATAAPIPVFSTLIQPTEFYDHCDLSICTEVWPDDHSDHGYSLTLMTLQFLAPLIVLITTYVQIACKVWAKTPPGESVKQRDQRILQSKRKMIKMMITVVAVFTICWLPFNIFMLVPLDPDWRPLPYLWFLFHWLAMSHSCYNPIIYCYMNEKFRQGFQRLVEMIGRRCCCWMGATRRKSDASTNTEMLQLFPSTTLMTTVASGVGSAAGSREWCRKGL", "experiment": "In vitro calcium (GCaMP6s) FLIPR assay in HEK293T cells transfected with NPYLR7", "format": "cell-based", "conditions": "for RFU: assay date 1/11/20 plate 1, duplicate wells, listed as TDI-012631-CL-1; for in vitro potency (in words): relative to reference compound TDI-012631", "procedure,_shortened": "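HEK293T cells transiently co-transfected with GCaMP6s, mouse Gqα15 and NPYLR7; FLIPR imaging every second for 5 min, compound (0–100 μM) added after 30 s baseline in HBSS + 20 mM HEPES. Response normalized to buffer (0%) and 10 μM FMRFa3 (100%); relative EC50 by four-parameter fit, replicates averaged.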"}, "[2]": {"target": "T1, Ae. aegypti NPYLR7", "design": "method as in PMID 30735632", "conditions": "previous work; read-out: EC50 in activating NPYLR7 in vitro; cited from earlier work"}, "[3]": {"tested_on": "Aedes aegypti (Orlando strain) females", "design": "method as in PMID 30735632", "conditions": "previous work; cited from earlier work"}, "[4]": {"tested_on": "Aedes aegypti (Orlando strain) females", "experiment": "Glytube feeding: females feeding to repletion and weight per female (meal palatability)", "format": "in vivo", "conditions": "Supplemental Figure 1 Panel A; compounds of Fig 3; individual replicate values", "protocol": "Groups of 60–150 females were placed in bucket cages with a diameter of 21.6 cm and height of 16.5 cm (VWR) and fasted with access to water for 24 h prior to feeding. Meals were delivered to females via Glytube membrane feeders as described previously. Meals consisted of 1.5 ml sheep blood (HemoStat Laboratories), saline (400 mM NaHCO3 + dih2O), or saline and test compound. Lyophilized compounds were stored at room temperature until use. High-concentration stocks (30 mM in 100% dimethyl sulfoxide [DMSO]) (Sigma-Aldrich) were stored at −20 °C and diluted in saline immediately prior to feeding. Once prepared, meals and glycerol heating elements were warmed in a 42 °C water bath for 15 min to provide warmth to attract mosquitos to feed. ATP (1 mM final concentration) and test compounds (1 μM final concentration) were added prior to placing the meal on top of the mesh on the cage containing female mosquitos. Females were allowed 15–20 min to feed to repletion. Abdominal engorgement was scored by eye and confirmed by weighing females to ensure full feeding (Data S1). […] Females were returned to their original cage with a diH2O wick for 48 h prior to behavioral testing. The lethality of each compound was measured by counting the number of dead females in each cage 24 h post-meal.\nSupplementary file 13071_2024_6347_MOESM1_ESM.png: Supplementary Material 1: Figure 1. […] (A) Percent of females feeding to repletion and (B) weight per female after feeding on the indicated meal used for testing in Miniport olfactometer experiments in Figure 3B. (C) Percent of females feeding to repletion and (D) weight per female after feeding on the indicated meal used for testing in live host assays in Figure 4. Data are shown as mean with standard deviation. n = 2–22 replicate cages, 60–150 females/cage. Females were weighed in groups of five to ensure reliable readings. Kruskal–Wallis with Dunn’s multiple comparisons to saline-fed group, ns P > 0.01, * P < 0.01, *** P < 0.0001. (PNG 321 KB)"}, "[5]": {"conditions": "Figure 1E Summary, third list (n = 39), read-out: Reported Metric (Summary list)"}, "[6]": {"conditions": "relative EC50, percent effect relative to 10 μM FMRFa3, read-out: EC50"}, "[7]": {"conditions": "EC50 of the individual assay date/plate (assay date), read-out: EC50"}, "[8]": {"conditions": "summary EC50 per compound (mean over assay dates), the unit is taken from the neighbouring EC50 (uM) column, read-out: Reported Metric"}}, "note": "Where “and” joins values, the source holds several entries; their conditions need not be identical. Equal values may be shown once. Read-outs that look alike come from different tables or passages of the source.", "data": [{"smiles": "COc1ccc2c(C)nc(NC(=N)N)nc2c1", "note": "[TDI-012631, reference compound]", "values": [{"measurement": "RFU", "setting": "[1]; 0.00169350878084303uM", "result": "71 RFU and 55 RFU"}, {"measurement": "RFU", "setting": "[1]; 0.00508052634252909uM", "result": "71 RFU and 78 RFU"}, {"measurement": "RFU", "setting": "[1]; 0.0152415790275873uM", "result": "77 RFU and 71 RFU"}, {"measurement": "RFU", "setting": "[1]; 0.0457247370827618uM", "result": "80 RFU and 73 RFU"}, {"measurement": "RFU", "setting": "[1]; 0.137174211248285uM", "result": "64 RFU and 79 RFU"}, {"measurement": "RFU", "setting": "[1]; 0.411522633744856uM", "result": "90 RFU and 78 RFU"}, {"measurement": "RFU", "setting": "[1]; 3.7037037037037uM", "result": "273 RFU and 186 RFU"}, {"measurement": "RFU", "setting": "[1]; 11.1111111111111 uM", "result": "265 RFU and 324 RFU"}, {"measurement": "RFU", "setting": "[1]; 33.333333 uM", "result": "286 RFU and 301 RFU"}, {"measurement": "RFU", "setting": "[1]; 100 uM", "result": "368 RFU and 331 RFU"}, {"measurement": "EC50", "setting": "[1]; [5]", "result": 4.11, "unit": "µM"}, {"measurement": "EC50", "setting": "[1]; Figure 1E, EC50 of the single assay date/plate, read-out: EC50", "result": "2.75 µM and 1.61 µM and 2.58 µM and 3.45 µM and 2.36 µM and 11.5 µM and 2.22 µM and 6.4 µM"}, {"measurement": "EC50", "setting": "[1]; Figure 1E, metric reported per compound, repeated on every replicate line, read-out: Reported Metric (EC50)", "result": 4.11, "unit": "µM"}, {"measurement": "response at 0.0051(uM)", "setting": "[1]; compound 0.0051 uM, single replicate well", "result": -0.02145}, {"measurement": "response at 0.0152(uM)", "setting": "[1]; compound 0.0152 uM, single replicate well", "result": 3.235}, {"measurement": "response at 0.4115(uM)", "setting": "[1]; compound 0.4115 uM, single replicate well", "result": -1.786}, {"measurement": "EC50", "setting": "[1]; [6]", "result": 4.11, "unit": "µM"}, {"measurement": "EC50", "setting": "[1]; sheet Figure 3C, unit inferred, read-out: EC50", "result": 4.11, "unit": "µM"}, {"measurement": "EC50", "setting": "[2]", "result": 19.6, "unit": "µM"}, {"measurement": "fed dose at which behaviorally active", "setting": "[3]", "result": "> 30", "unit": "µM"}]}, {"smiles": "CNc1nc(NC(=N)N)nc2cc(OCc3ccccc3)c(OC)cc12", "note": "[TDI-014184]", "values": [{"measurement": "EC50", "setting": "[1]; [7]", "result": 0.49, "unit": "µM"}, {"measurement": "EC50", "setting": "[1]; [5]", "result": 0.49, "unit": "µM"}, {"measurement": "activation at 0.0457 µM", "setting": "[1]; HEK-293T, 0.0457 uM, single replicate, normalised response", "result": 8.6, "unit": "%"}, {"measurement": "activation at 11.1111 µM", "setting": "[1]; HEK-293T, 11.1111 uM, single replicate, normalised response", "result": 91.4, "unit": "%"}, {"measurement": "EC50", "setting": "[1]; [6]", "result": 0.49, "unit": "µM"}, {"measurement": "in vitro potency (in words)", "setting": "[1]", "result": "significantly improved in vitro potency"}, {"measurement": "EC50", "setting": "[1]; [8]", "result": 0.49, "unit": "µM"}, {"measurement": "% feeding (females feeding to repletion)", "setting": "[4]", "result": 76.92, "unit": "%"}]}, {"smiles": "Cc1nc(NC(=N)N)nc2cc(N3CCc4ccccc4C3)ccc12", "note": "[TDI-014186]", "values": [{"measurement": "EC50", "setting": "[1]; [7]", "result": 35.5, "unit": "µM"}, {"measurement": "EC50", "setting": "[1]; Figure 1E Summary, second list (n = 48), read-out: Reported Metric (Summary list)", "result": 35.5, "unit": "µM"}, {"measurement": "EC50", "setting": "[1]; [6]", "result": 35.5, "unit": "µM"}, {"measurement": "in vitro potency (in words)", "setting": "[1]", "result": "lower in vitro potency"}, {"measurement": "EC50", "setting": "[1]; [8]", "result": 35.5, "unit": "µM"}, {"measurement": "% feeding (females feeding to repletion)", "setting": "[4]", "result": 56.22, "unit": "%"}]}]}
